Results on 18 compounds are retold here after patent publication US11787772B2, “Carboxylic diarythiazepineamines as mixed mu- and delta-opioid receptor agonists” (THE TRUSTEES OF COLUMBIA UNIVERSITY IN THE CITY OF NEW YORK, priority 2017, dated 2023).

For data set [1], the target named is T1, human mu opioid receptor (MOR) (Homo sapiens, UniProt P35372).
T1 construct: expressed in transfected cells; host or cells: HEK-293T
Description: BRET assay measuring G protein activation, agonist activity at human MOR. Conditions: for MOR potency relative to analogs lacking substitution at position 2: dihalo-substituted core. It is filed as cell-based. The protocol: (§1) The diarylthiazepinamine carboxylic acids (9) were tested for agonist activity at the human mu opioid receptor (MOR) and delta opioid receptor (DOR) using bioluminescence resonance energy transfer (BRET) assays measuring G protein activation as previously described (Table 1) (Rives, M.-L. et al. 2012; Negri, A. et al. 2013).
Human MOR cDNA was transfected alongside GααB with RLuc8 inserted at position 91 (GααB—RLuc8), Gβ1 (β1), and Gγ2 fused to the full-length mVenus at its N terminus (mVenus-γ2) into HEK-293T cells (5×10^6 cells/plate) in 10-cm dishes using PEI (Polysciences Inc.; Warrington, PA) in a 1:1 ratio diluted in Opti-MEM (Life Technologies Corp.; Grand Island, NY) to assay for G protein activation as described previously (Rives, M.-L. et al. 2012; Negri, A. et al. 2013). Cells were maintained in Dulbecco's Modified Eagle Medium (high glucose #11965; Life Technologies) supplemented with 10% FBS (Premium Select, Atlanta Biologicals; Atlanta, GA) and 100 U/mL penicillin and 100 μg/mL streptomycin (#15140, Life Technologies). After 24 hours the media was changed, and the experiment was performed 24 hours later (48 hours after transfection).
(§2) Transfected cells were dissociated and re-suspended in phosphate-buffered saline (PBS). Approximately 200,000 cells/well were added to a black-framed, white well 96-well plate (#60050; Perkin Elmer; Waltham, MA). The microplate was centrifuged and the cells were re-suspended in PBS. Then 5 μM of the luciferase substrate coelenterazine H was added to each well for 5 minutes. Following coelenterazine H addition, ligands were added and the BRET signal was measured at 5 minutes on a PHERAstar FS plate reader. Quantification of the BRET signal required calculating the ratio of the light emitted by the energy acceptor, mVenus (510-540 nm), over the light emitted by the energy donor, RLuc8 (485 nm). […] Dose response curves were fit using a three-parameter logistics equation in GraphPad Prism 6.
The additional diarylthiazepinamine carboxylic acids (9i, 9j, 9k, and 91) were tested for agonist activity at the human mu opioid receptor (MOR) using bioluminescence resonance energy transfer (BRET) assays measuring G protein activation (Table 2) as previously described (Rives, M.-L. et al. 2012; Negri, A. et al. 2013; Example 2 of the present application).
(Bioluminescence resonance energy transfer reports proximity on the nanometre scale.)

For data set [2], the target named is T2, human delta opioid receptor (DOR) (Homo sapiens, UniProt P41143).
T2 construct: expressed in transfected cells
T2 sequence (P41143 whole entry): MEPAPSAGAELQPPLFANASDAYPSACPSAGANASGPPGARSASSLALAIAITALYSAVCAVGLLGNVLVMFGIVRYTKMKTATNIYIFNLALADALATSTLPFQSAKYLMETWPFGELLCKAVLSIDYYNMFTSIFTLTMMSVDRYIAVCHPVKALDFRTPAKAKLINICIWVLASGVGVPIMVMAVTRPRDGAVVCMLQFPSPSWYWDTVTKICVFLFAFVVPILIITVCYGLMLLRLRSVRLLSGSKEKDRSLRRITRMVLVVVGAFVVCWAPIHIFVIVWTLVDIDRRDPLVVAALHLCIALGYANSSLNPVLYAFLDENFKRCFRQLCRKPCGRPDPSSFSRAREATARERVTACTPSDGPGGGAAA
As to the kind of experiment: BRET assay measuring G protein activation, agonist activity at human DOR. It is filed as cell-based. The protocol:
as §1, §2

The next data set concerns male C57BL/6 mice. As to the kind of experiment: Analgesic activity in hot plate assay. In kind it is in vivo, mouse. The settings on record: for ED50: Mus musculus, sc, hot plate 55° C., male C57BL/6 mice, tested at 15 post-injection. The protocol:
Male C57BL/6 mice were timed for latency to jump on a hot-plate apparatus set to 55° C., using a 30 s cutoff to prevent tissue damage. Following a baseline test, animals were injected subcutaneously (s.c.) with escalating doses of drug and tested at […] (time of maximal effect). Dose-response curves were fit via nonlinear regression using GraphPad Prism (La Jolla, CA).

A further data set in a line: physchem. The settings on record: 25 °C, thermodynamic from solid. The protocol:
Test compounds (4 mg) were added to 200 μL of one of the tested aqueous solutions (hereinafter—buffer): 100 mM aqueous HCl (pH 1) or 100 mM Na-phosphate buffer (pH 7). The obtained suspensions/solutions with the theoretical concentration of 20 mg/mL were further allowed to equilibrate at 25° C. on a thermostatic orbital shaker for 24 hours and then centrifuged at 6000 rpm for 4 minutes and filtered through HTS filter plates using a vacuum manifold. In parallel, compound dilutions in 50% acetonitrile/HCl and 30% acetonitrile/Na-phosphate buffer mixes were prepared to theoretical concentrations of 0 mg/mL (blank), 0.1 mg/mL, 0.2 mg/mL, and 0.4 mg/mL in duplicates to generate calibration curves falling within the optimum UV absorption range. The filtrates of test compounds were diluted 100-fold with acetonitrile-buffer mixtures before measuring. The filtered supernatant test samples were transferred to 96-well plates and measured for absorbance in the 200-550 nm range with 5 nm step increment. The concentrations of compounds in supernatants were calculated using the measured absorbance and the previously determined calibration curve. Proper absorbance wavelengths for calculations were selected for each compound manually based on absorbance maxima (absolute absorbance unit values for the minimum and maximum concentration points within 0-2.5 OD range).

The nature of data set [3]: Solubility determination (Method A), neutral water. In kind it is physicochemical. Conditions: for solubility at 24 h: distilled water, thermodynamic from solid, neutral water, 20° C., Method A (24 h stirring), average of 2 independent trials, read-out: Aqueous Solubility (mg/mL @ 20° C.). As to the method: A quantity of the appropriate compound sufficient to saturate the resulting solution was added to distilled water (0.50 mL) and the mixture was stirred vigorously for 24 h at room temperature (20° C.). The mixture was then centrifuged for 3 min. at 21,000×g and the stir bar was carefully removed. The mixture was then centrifuged again for 5 min. at 21,000×g and the supernatant was carefully removed by syringe and passed through a […] syringe filter. An aliquot (300 μL) of the filtered supernatant was concentrated in vacuo and the mass of the residual solids determined in order to calculate the solubility.

[4] abbreviates: BRET G protein activation, HEK-293T cells, error ± SEM of 2 or more independent trials, read-out: Human MOR (EC50).
[5] abbreviates: BRET G protein activation, error ± SEM of 2 or more independent trials, read-out: Human DOR (EC50).

Counter-ions that a name gives are not always drawn. Like-named read-outs stand apart in the source and are kept apart here.

T1 sequence (P35372 whole entry): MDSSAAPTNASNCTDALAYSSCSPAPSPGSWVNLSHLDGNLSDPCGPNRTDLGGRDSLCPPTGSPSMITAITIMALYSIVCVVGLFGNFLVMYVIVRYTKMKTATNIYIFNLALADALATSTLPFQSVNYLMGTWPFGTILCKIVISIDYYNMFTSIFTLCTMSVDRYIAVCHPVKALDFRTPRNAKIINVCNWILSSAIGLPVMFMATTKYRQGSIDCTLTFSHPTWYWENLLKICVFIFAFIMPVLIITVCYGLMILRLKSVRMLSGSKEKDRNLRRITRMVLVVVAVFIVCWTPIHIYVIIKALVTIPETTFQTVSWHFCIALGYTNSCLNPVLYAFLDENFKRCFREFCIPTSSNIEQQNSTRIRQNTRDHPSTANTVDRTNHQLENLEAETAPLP

Take `COCCCNC1c2ccccc2N(C)S(=O)(=O)c2ccc(Cl)cc21` (stereo not shown) [Compound 16a, reference compound]: the EC50 in data set [1] (setting [4]) turned out to be 16900 ± 5220 nM.

In the case of `CN1c2ccccc2C(NCCCCCCCCCCC(=O)O)c2ccc(I)cc2S1(=O)=O` (stereo not shown) [Compound 9h, 11-((3-Iodo-6-methyl-5,5-dioxido-6,11-dihydrodibenzo [c,f][1,2]thiazepin-11-yl)amino)undecanoic acid hydrochloride salt], the EC50 stood at 700 ± 305 nM in data set [2] and 110 ± 29 nM in data set [1].

`CN1c2ccccc2C(NCCCCCCC(=O)[O-])c2ccc(Cl)cc2S1(=O)=O.[Na+]` (stereo not shown) [Tianeptine (Na salt), Tianeptine, reference compound] displayed an ED50 in the data set on male C57BL/6 mice of 15 mg/kg.

On to `C#Cc1ccc2c(c1)S(=O)(=O)N(C)c1ccccc1C2NCCCCCCC(=O)O` (stereo not shown) [Compound 9a, 7-((3-Ethynyl-6-methyl-5,5-dioxido-6,11-dihydrodibenzo [c,f][1,2]thiazepin-11-yl)amino)heptanoic acid], for which the results for the EC50 in data set [2] (setting [5]) and in data set [1] (setting [4]) were 5900 ± 300 nM and 53.3 ± 18 nM, respectively.

With `Cc1ccc2c(c1)S(=O)(=O)N(C)c1ccccc1C2NCCCCCCC(=O)O` (stereo not shown) [3-Methyl-substituted Analog, reference compound], the EC50 in data set [2] was over 10000 nM; in data set [1], 890 nM.

With `COCCCNC1c2ccccc2N(C)S(=O)(=O)c2ccccc21` (stereo not shown) [Compound 16c, reference compound], the EC50 in data set [1] (setting [4]) was 2010 ± 700 nM.

Turning to `COCCCNC1c2ccccc2N(C)S(=O)(=O)c2cc(Cl)ccc21` (stereo not shown) [Compound 16b, reference compound], the EC50 in data set [1] (setting [4]) is 264 ± 85.3 nM.

As for `CCOC(=O)CCCCCCNC1c2ccccc2N(C)S(=O)(=O)c2cc(SC)ccc21` (stereo not shown) [Compound 8c, Ethyl 7-((6-methyl-3-(methylthio)-5,5-dioxido-6,11-dihydrodibenzo[c,f][1,2]thiazepin-11-yl)amino)heptanoate], the Emax in data set [2] (BRET G protein activation) is 70%. The “Human DOR agonist type (partial / full agonist)” value in data set [2] (BRET G protein activation) is given as “partial agonist”. In addition, the half-maximal effective concentration (EC50) in data set [2] (setting [5]) is 7000 nM; in data set [1] (setting [4]) it was 222 nM.

As for `CSc1ccc2c(c1)S(=O)(=O)N(C)c1ccccc1C2NCCCCCCC(=O)O` (stereo not shown) [Compound 9c, 7-((6-Methyl-3-(methylthio)-5,5-dioxido-6,1l-dihydrodibenzo [c,f][1,2]thiazepin-11-yl)amino)heptanoic acid], in data set [2] (BRET G protein activation), the Emax was found to be 51%, the “Human DOR Emax” value is listed as 51% and the “Human DOR agonist type (partial / full agonist)” value is reported as “partial agonist”. Also, in data set [2] (setting [5]), the concentration giving a half-maximal response (EC50) is 2060 nM. The “DOR Emax relative to the control agonist DPDPE” value in data set [2] (FIG. 1) was “lesser Emax than the control agonist DPDPE”. For the same compound, the concentration for a half-maximal effect (EC50) in data set [1] (setting [4]) is 41.8 nM.

`CN1c2ccccc2C(NCCCCC(=O)O)c2cc(F)c(Br)cc2S1(=O)=O.Cl` (stereo not shown) [Compound 9l, 5-((3-bromo-2-fluoro-6-methyl-5,5-dioxido-6,11-dihydrodibenzo [c,f][1,2]thiazepin-11-yl)amino)pentanoic acid hydrochloride salt]: in data set [1], the concentration for a half-maximal effect (EC50) was 45 nM and the “MOR potency relative to analogs lacking substitution at position 2” value is “equipotent or more potent”.

Consider `CN1c2ccccc2C(NCCCCCCC(=O)O)c2cc(Cl)c(Cl)cc2S1(=O)=O.Cl` (stereo not shown) [Compound 9i, 7-((2,3-dichloro-6-methyl-5,5-dioxido-6,11-dihydrodibenzo [c,f][1,2]thiazepin-11-yl)amino)heptanoic acid hydrochloride salt], for which, in data set [1], the concentration for a half-maximal effect (EC50) came to 172 nM and the “MOR potency relative to analogs lacking substitution at position 2” value is “equipotent or more potent”.

As for `CN1c2ccccc2C(NCCCCCCC(=O)O)c2ccc(Br)cc2S1(=O)=O.Cl` (stereo not shown) [bromotianeptine, reference compound], the solubility in the data set “physchem” (pH 1, simulated gastric fluid) was under 100 µg/mL; in the data set “physchem” (pH 7, aqueous buffer) it was 620 µg/mL. The solubility at 24 h in data set [3] was determined as 4.5 mg/mL.

As to `CN1c2ccccc2C(NCCCCCCCC(=O)O)c2ccc(Br)cc2S1(=O)=O` (stereo not shown) [Compound 9d, 8-((3-Bromo-6-methyl-5,5-dioxido-6,11-dihydrodibenzo [c,f][1,2]thiazepin-11-yl)amino) octanoic acid hydrochloride salt], the 50% effective concentration (EC50) in data set [2] was found to be 1700 ± 40 nM; in data set [1], 56 ± 24 nM.

For `CN1c2ccccc2C(NCCCCCCCCC(=O)O)c2ccc(I)cc2S1(=O)=O` (stereo not shown) [Compound 9f, 9-((3-Iodo-6-methyl-5,5-dioxido-6,11-dihydrodibenzo [c,f][1,2]thiazepin-11-yl)amino) nonanoic acid hydrochloride salt], the results for the EC50 in data set [2] and in data set [1] were 530 ± 340 nM and 22 ± 14 nM, respectively.

In turn, `CCOC(=O)CCCCCCNC1c2ccccc2N(C)S(=O)(=O)c2ccc(Cl)cc21` (stereo not shown) [Compound 15a, reference compound] displayed a concentration for a half-maximal effect (EC50) in data set [1] of 4150 ± 930 nM.

`CN1c2ccccc2C(NCCCCCCC(=O)O)c2cc(F)c(Cl)cc2S1(=O)=O.Cl` (stereo not shown) [Compound 9j, 7-((3-chloro-2-fluoro-6-methyl-5,5-dioxido-6,11-dihydrodibenzo [c,f][1,2]thiazepin-11-yl)amino)heptanoic acid hydrochloride salt]: the solubility in “physchem” (pH 1, simulated gastric fluid) is 5300 µg/mL; in “physchem” (pH 7, aqueous buffer) it was 70 µg/mL. Besides, the response in data set [1] was half-maximal at 129 nM (EC50). The “MOR potency relative to analogs lacking substitution at position 2” value in data set [1] was “equipotent or more potent”.

For `CN1c2ccccc2C(NCCCCCCC(=O)O)c2cc(F)c(Br)cc2S1(=O)=O` (stereo not shown) [Compound 9b, 7-((3-Bromo-2-fluoro-6-methyl-5,5-dioxido-6,1-dihydrodibenzo [c,f][1,2]thiazepin-11-yl)amino) heptanoic acid hydrochloride salt], the solubility in the data set “physchem” (pH 1, simulated gastric fluid) was 1100 µg/mL; in “physchem” (pH 7, aqueous buffer) it was 840 µg/mL. For the same compound, in data set [3], the solubility at 24 h came out at 9.8 mg/mL. Besides, the “Solubility relative to monohalo counterpart bromotianeptine” value in data set [3] (neutral unbuffered water) was 2-3 fold. In addition, the concentration for a half-maximal effect (EC50) in data set [2] was 11500 ± 2200 nM; in data set [1], 83.1 ± 5.7 nM. The compound further displayed an ED50 in the data set on male C57BL/6 mice of 5.1 mg/kg. The “Analgesic activity in the mouse hot plate assay” value in the data set on male C57BL/6 mice (much higher potency than tianeptine) is recorded as “potent analgesics”. For the same compound, the “MOR potency relative to analogs lacking substitution at position 2” value in data set [1] is “equipotent or more potent”.

Consider `CCOC(=O)CCCCCCNC1c2ccccc2N(C)S(=O)(=O)c2ccccc21` (stereo not shown) [Compound 15c, reference compound], for which the concentration giving a half-maximal response (EC50) in data set [1] is 156 ± 84.7 nM.

What is called EC50 is the concentration at which the effect is half-maximal. Broadly, the ED50 is the midpoint of the dose-response relation. A low value points to greater potency. As usually defined, the Emax is the maximal effect, on the per cent scale that the assay sets.
